From US9849145B2, “Pharmaceutical composition containing honeysuckle extract and antibiotics, pharmaceutical kit, and use of honeysuckle extract for preparation of drug” (priority 2011, dated 2017)
Where “and” joins values, the source holds several entries; their conditions need not be identical. Equal entries are not always repeated.

Experiments:
Pseudomona aeruginosa = test system: Pseudomona aeruginosa; parameters: key: Resistant; Sensitive; Intermediate degree (moderate resistance); settings: clinical isolate, specimen 12; cited from earlier work
Escherichia coli = test system: Escherichia coli; parameters: key: Resistant; Sensitive; Intermediate degree (moderate resistance); settings: clinical isolate, specimen 32042, urine; cited from earlier work
Klebsiella pneumoniae [1] = test system: Klebsiella pneumoniae; parameters: key: Resistant; Sensitive; Intermediate degree (moderate resistance); settings: clinical isolate, specimen 31494, sputum; cited from earlier work
AMP-sensitive strain = assay: AMP-sensitive bacterium infection model in mice (quality control); assay type: in vivo, KM mice; settings: for protection / control of infection by AMP alone (in words): AMP-sensitive bacterium infection model-AMP intervention control group
Description: The control strain is clinically isolated AMP-sensitive strain, which was isolated from the sputum specimen of the patient in the ward of the Fourth People's Hospital of Jinan in 2010, and preserved until today.
(§1) KM mice were purchased from the Experimental Animal Center of Shandong University, weighing 16-18 g, with half male and half female and animal license number of SCXK (Lu) 20090001.
(§2) There were 5 control groups with 10 mice in each group: normal control group, AMP-sensitive bacterium quality control model control group (AMPS) and the treatment group thereof, AMP-resistant bacterium model control group (AMPR) and the treatment group thereof;
(§3) After being grouped, the animals were injected intraperitoneally with 2.5×10^7 (Klebsiella pneumoniae)*100 μL^−1 per animal, then immediately treated by administration, and the route of administration alternated between tail intravenous injection and intraperitoneal injection (the sterile normal saline was used as the solvent for drugs except W, since continuous tail intravenous injection causes damage to tail veins, therefore the tail intravenous injection and intraperitoneal injection were performed alternatively), the animal was injected once a day for 5 days continuously. The efficacy of each group was evaluated according to the animal mortality and intraperitoneal bacterial count.
(§4) Intraperitoneal bacterium counting of dead animals: the animals were injected intraperitoneally with 1 ml sterile normal saline immediately after they died, and the abdomens of the animals were kneaded gently for 1 min, the ascites was drawn and coated on the plate after gradient dilution, and cultured at 37° C. overnight, then the colonies were counted;
(§5) Intraperitoneal bacterium counting of surviving animals: the mice were administrated continuously for 5 days and sacrificed through dislocation 2 h after the last administration, then the mice were injected intraperitoneally with 1 ml sterile normal saline, and the abdomens of the mice were kneaded gently for 1 min, the ascites was drawn and coated on the plate after gradient dilution, and cultured at 37° C. overnight, then the colonies were counted, colony count results of the control groups are shown in table 9 below, and colony count results of the experimental groups are shown in table 10 below.

[2] = test system: AMP-resistant Klebsiella pneumoniae; assay: AMP-resistant bacterium infection model in mice (mortality, intraperitoneal colony count); assay type: in vivo, KM mice; settings: for protection / control of infection by AMP alone (in words): AMP-resistant bacterium infection model-AMP intervention control group
Description: This example studies the antimicrobial effects in vivo of the honeysuckle extracts N1 to N4 which are respectively combined with antibiotics, and the antimicrobial effects were compared with that of the honeysuckle water decoction W combined with the antibiotic.
The experimental strain is Klebsiella pneumoniae which was isolated from the sputum specimen of the patient in the ward of the Fourth People's Hospital of Jinan in 2010, and detection of the drug resistant spectrum is shown in Table 6 below.
as §1, §2
There were 15 experimental groups with 10 mice in each group: N1 to N4 and W were respectively combined with AMP high-dose group, AMP medium-dose group and AMP low-dose group.
as §3, §4, §5

Klebsiella pneumoniae [3] = assay: Bacterial inhibition test of antibiotics, Klebsiella pneumoniae; assay type: cell-based; settings: 2-fold dilutions from 1 mg/mL to 1:2048; 37° C. 20 h; 630 nm
Description: In this example, bacterial inhibition effects of antibiotics on the four multiple resistant bacteria in Tables 1-4 were measured.
The activated bacterium suspension was diluted to a concentration equivalent to 0.5 McFarland turbidity standard, and diluted with the culture medium of MH broth in a proportion of 1:1000, and then added into each well in amount of 100 μL per well.
The antibiotics resisted by the above four multiple resistant bacteria were diluted to 1:2048 (2^−11) from 1 mg/mL (initial concentration) by 2-fold dilution, and then the original solution and different concentrations of diluted antibiotics were added respectively into the well containing the bacterium suspension, with each well added with 100 μL, and the minimum inhibitory concentration (MIC) of each antibiotic was recorded finally.
Meanwhile, a bacterium solution control (that is, bacterium solution plus an equal volume of culture medium) and a blank culture medium control were set.
Cultivation was performed at 37° C. for 20 h, and detection was performed at 630 nm by the microplate reader, and the bacterial inhibition rate is calculated according to formula (2), and the data obtained is put into formula (1) to calculate specific distance, and the specific distance is added to the virus dilution index with pathologic rate less than 50% to obtain half inhibitory concentration (Reed-Muench method). […]

Klebsiella pneumoniae [4] = test system: Klebsiella pneumoniae; parameters: key: Resistant; Sensitive; Intermediate degree (moderate resistance); settings: clinical isolate, specimen 31853, urine; cited from earlier work
[5] = AMP-sensitive bacterium model, AMP 16.80 mg per mouse alone, n = 10
[6] = AMP intervention control group: AMP 16.80 mg per mouse alone, n = 10

CC1(C)S[C@@H]2[C@H](NC(=O)[C@H](N)c3ccccc3)C(=O)N2[C@H]1C(=O)O [AMP, ampicillin]
resistance of Pseudomona aeruginosa to the antibiotic (Pseudomona aeruginosa): R | resistance of Escherichia coli to the antibiotic (Escherichia coli): R | drug resistant spectrum of the experimental strain of Klebsiella pneumoniae (Klebsiella pneumoniae [1]): R | protection / control of infection by AMP alone (in words) (AMP-sensitive strain): protected effectively | protection / control of infection by AMP alone (in words) (AMP-sensitive strain; listed as ampicillin): sensitive to ampicillin | Mortality (%) (AMP-sensitive strain; [5]): 0% | Number of deaths 1st day (AMP-sensitive strain; [5]): 0 | Number of deaths 2nd day (AMP-sensitive strain; [5]): 0 | Number of deaths 3rd day (AMP-sensitive strain; [5]): 0 | Number of deaths 4th day (AMP-sensitive strain; [5]): 0 | Number of deaths 5th day (AMP-sensitive strain; [5]): 0 | Number of deaths Total (AMP-sensitive strain; [5]): 0 | Bacterium isolation positive rate (%) (AMP-sensitive strain; AMPS model, AMP 16.80 mg per mouse alone): 10% | Intraperitoneal colony count of animals (AMP-sensitive strain; AMPS model, AMP 16.80 mg per mouse alone, one value per mouse Nos. 1-10, unit not given in Table 9 (Table 10 note: CFU/mL)): 1.054 × 10^1 and 0 (9×) | Mortality (%) [2, 6]: 100% | Number of deaths 1st day [2, 6]: 0 | Number of deaths 2nd day [2, 6]: 7 | Number of deaths 3rd day [2, 6]: 2 | Number of deaths 4th day [2, 6]: 1 | Number of deaths 5th day [2, 6]: 0 | Number of deaths Total [2, 6]: 10 | protection / control of infection by AMP alone (in words) [2]: cannot be protected (all of animals died) | protection / control of infection by AMP alone (in words) ([2]; listed as ampicillin): cannot be controlled by ampicillin | Bacterium isolation positive rate (%) ([2]; AMPR model, AMP 16.80 mg per mouse alone): 100% | Intraperitoneal colony count of animals ([2]; AMPR model, AMP 16.80 mg per mouse alone, one value per mouse Nos. 1-10, unit not given in Table 9 (Table 10 note: CFU/mL)): 3.557 × 10^10 and 3.478 × 10^10 and 3.578 × 10^10 and 3.487 × 10^10 and 3.550 × 10^10 and 3.373 × 10^10 and 3.360 × 10^10 and 6.617 × 10^9 and 4.800 × 10^9 and 5.467 × 10^9 | bacterial inhibition effect of the antibiotic (Klebsiella pneumoniae [3]): inhibitory effect on Klebsiella pneumoniae in the first two dilutions (1 mg/mL, 0.5 mg/mL) | resistance of Klebsiella pneumoniae to the antibiotic (Klebsiella pneumoniae [4]): R
